Reference: PubChem BioAssay AID2060885 (Molecular Pharmacology Branch, DTP, NCI, 2025)

Test system: NCI-H23 complex spheroids with HUVEC/MSC, viability
Assay: Anticancer human tumor NCI-H23 cell line growth inhibition [RAS];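 further: spheroids exposed to compound for 7 days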;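 on viability, T/C: 100% = DMSO vehicle control viability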
Details: for IC50: curve of first compound; for viability, T/C: stronger effect = lower value
Summary of the method: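 Agents were tested in combination matrices in half-log decrements from a top concentration at or near clinical Cmax (10 microM if undetermined). Targets were multi-cell spheroids of tumour lines plus HUVEC and MSC stromal cells.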

[1] = second compound 0.000949 µM, first compound 0.0316 µM
[2] = second compound 0.000949 µM, first compound 0.1 µM
[3] = second compound 0.000949 µM, first compound 0.316 µM
[4] = second compound 0.000949 µM, first compound 1 µM
[5] = second compound 0.000949 µM, first compound 3.16 µM
[6] = second compound 0.000949 µM, first compound 10 µM
[7] = second compound 0.003 µM, first compound 0.0316 µM
[8] = second compound 0.003 µM, first compound 0.1 µM
[9] = second compound 0.003 µM, first compound 0.316 µM
[10] = second compound 0.003 µM, first compound 1 µM
[11] = second compound 0.003 µM, first compound 3.16 µM
[12] = second compound 0.003 µM, first compound 10 µM
[13] = second compound 0.00949 µM, first compound 0.0316 µM
[14] = second compound 0.00949 µM, first compound 0.1 µM
[15] = second compound 0.00949 µM, first compound 0.316 µM
[16] = second compound 0.00949 µM, first compound 1 µM
[17] = second compound 0.00949 µM, first compound 3.16 µM
[18] = second compound 0.00949 µM, first compound 10 µM
[19] = second compound 0.03 µM, first compound 0.0316 µM
[20] = second compound 0.03 µM, first compound 0.1 µM
[21] = second compound 0.03 µM, first compound 0.316 µM
[22] = second compound 0.03 µM, first compound 1 µM
[23] = second compound 0.03 µM, first compound 3.16 µM
[24] = second compound 0.03 µM, first compound 10 µM
[25] = second compound 0.0949 µM, first compound 0.0316 µM
[26] = second compound 0.0949 µM, first compound 0.1 µM
[27] = second compound 0.0949 µM, first compound 0.316 µM
[28] = second compound 0.0949 µM, first compound 1 µM
[29] = second compound 0.0949 µM, first compound 3.16 µM
[30] = second compound 0.0949 µM, first compound 10 µM
[31] = second compound 0.3 µM, first compound 0.0316 µM
[32] = second compound 0.3 µM, first compound 0.1 µM
[33] = second compound 0.3 µM, first compound 0.316 µM
[34] = second compound 0.3 µM, first compound 1 µM
[35] = second compound 0.3 µM, first compound 3.16 µM
[36] = second compound 0.3 µM, first compound 10 µM

For `Cc1nc(N2CCC3(CC2)COC(C)C3N)c(CO)nc1Sc1ccnc(N)c1Cl` (centres undefined) + CCn1c(-c2cc(N3CCN(C)CC3)cnc2C(C)OC)c2c3cc(ccc31)-c1csc(n1)CC(NC(=O)C1CC1C)C(=O)N1CCCC(N1)C(=O)OCC(C)(C)C2, the IC50 (second compound 0.000949 µM) was < 0.0316 µM, the IC50 (second compound 0.003 µM) was < 0.0316 µM and the IC50 (second compound 0.00949 µM) was < 0.0316 µM. For the same compound, the IC50 (second compound 0.03 µM) was < 0.0316 µM, the IC50 (second compound 0.0949 µM) was < 0.0316 µM and the IC50 (second compound 0.3 µM) was < 0.0316 µM. For the same compound, the viability, T/C [1] was 40.2%, the viability, T/C [2] was 33.2% and the viability, T/C [3] was 22.9%. For the same compound, the viability, T/C [4] was 26.2%, the viability, T/C [5] was 18.7% and the viability, T/C [6] was 13.7%. For the same compound, the viability, T/C [7] was 35%, the viability, T/C [8] was 25.4% and the viability, T/C [9] was 21.2%. For the same compound, the viability, T/C [10] was 21%, the viability, T/C [11] was 15% and the viability, T/C [12] was 10.5%. It also gave a viability, T/C [13] of 30.2%, a viability, T/C [14] of 19.9% and a viability, T/C [15] of 20%. It also gave a viability, T/C [16] of 17.1%, a viability, T/C [17] of 11.5% and a viability, T/C [18] of 7.55%. It also gave a viability, T/C [19] of 24.4%, a viability, T/C [20] of 22.5% and a viability, T/C [21] of 18%. The viability, T/C [22] was 14.1%, the viability, T/C [23] was 8.53% and the viability, T/C [24] was 7.44%. It also gave a viability, T/C [25] of 17.3%, a viability, T/C [26] of 17.8% and a viability, T/C [27] of 14.6%. The viability, T/C [28] was 10.8%, the viability, T/C [29] was 7.63% and the viability, T/C [30] was 7.62%. It also gave a viability, T/C [31] of 17.4%, a viability, T/C [32] of 17.8% and a viability, T/C [33] of 12.3%. The viability, T/C [34] was 9.93%, the viability, T/C [35] was 7.11% and the viability, T/C [36] was 5.57%.
`NC1c2ccccc2OC12CCN(c1cnc3c(N4CCCc5ncccc54)n[nH]c3n1)CC2` (centres undefined) + CCn1c(-c2cc(N3CCN(C)CC3)cnc2C(C)OC)c2c3cc(ccc31)-c1csc(n1)CC(NC(=O)C1CC1C)C(=O)N1CCCC(N1)C(=O)OCC(C)(C)C2 was tested, and the IC50 (second compound 0.000949 µM) was < 0.0316 µM, the IC50 (second compound 0.003 µM) was < 0.0316 µM and the IC50 (second compound 0.00949 µM) was < 0.0316 µM. For the same compound, the IC50 (second compound 0.03 µM) was < 0.0316 µM, the IC50 (second compound 0.0949 µM) was < 0.0316 µM and the IC50 (second compound 0.3 µM) was < 0.0316 µM. For the same compound, the viability, T/C [1] was 29%, the viability, T/C [2] was 22.1% and the viability, T/C [3] was 15.2%. For the same compound, the viability, T/C [4] was 15.1%, the viability, T/C [5] was 10.4% and the viability, T/C [6] was 7.21%. The viability, T/C [7] was 23.4%, the viability, T/C [8] was 15.7% and the viability, T/C [9] was 12.3%. The viability, T/C [10] was 8.99%, the viability, T/C [11] was 8.38% and the viability, T/C [12] was 5.79%. It also gave a viability, T/C [13] of 19.4%, a viability, T/C [14] of 13.9% and a viability, T/C [15] of 9.85%. For the same compound, the viability, T/C [16] was 7.3%, the viability, T/C [17] was 5.1% and the viability, T/C [18] was 5.27%. The viability, T/C [19] was 15.7%, the viability, T/C [20] was 12.8% and the viability, T/C [21] was 8.98%. It also gave a viability, T/C [22] of 5.94%, a viability, T/C [23] of 4.97% and a viability, T/C [24] of 5.95%. The viability, T/C [25] was 12.9%, the viability, T/C [26] was 9.83% and the viability, T/C [27] was 6.34%. For the same compound, the viability, T/C [28] was 5.78%, the viability, T/C [29] was 4.29% and the viability, T/C [30] was 6.19%. For the same compound, the viability, T/C [31] was 11%, the viability, T/C [32] was 7.93% and the viability, T/C [33] was 6.42%. The viability, T/C [34] was 4.7%, the viability, T/C [35] was 4.58% and the viability, T/C [36] was 5.26%.
